Legend:
[1] = target: T1, human P2X4 (Homo sapiens, UniProt Q99571); assay: Human P2X4 HEK Cell FLIPR Assay; format: cell-based; settings: HEK293 stably expressing human P2X4, agonist Bz-ATP 3 μM (EC80); for IC50: read-out: Human P2X4 HEK Cells (FLIPR Assay) avg IC50
T1 construct: expressed in transfected cells
T1 sequence (Q99571 1-388): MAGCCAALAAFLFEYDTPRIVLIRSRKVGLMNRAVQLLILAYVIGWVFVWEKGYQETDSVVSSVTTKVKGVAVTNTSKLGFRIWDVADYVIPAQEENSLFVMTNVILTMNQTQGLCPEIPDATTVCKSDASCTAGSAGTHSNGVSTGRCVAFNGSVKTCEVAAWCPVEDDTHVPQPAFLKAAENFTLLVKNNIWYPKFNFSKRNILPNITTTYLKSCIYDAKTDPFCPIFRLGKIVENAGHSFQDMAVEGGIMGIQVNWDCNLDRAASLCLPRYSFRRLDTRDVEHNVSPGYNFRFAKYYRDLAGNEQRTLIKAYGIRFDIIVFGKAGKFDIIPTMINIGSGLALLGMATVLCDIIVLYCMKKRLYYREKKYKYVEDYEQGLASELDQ
Summary of the method: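 HEK293 cells stably expressing human P2X4 were loaded with Fluo8-AM (30 min, 37 °C, HBSS/HEPES pH 7.4 with probenecid), then preincubated 30 min at room temperature with compound, 25 μM–1 nM final, 0.5% DMSO. Bz-ATP-evoked calcium fluorescence was read on FLIPR; data were normalized to agonist control and given a four-parameter fit for IC50.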

[2] = target: T2, rat P2X4 (Rattus norvegicus, UniProt P51577); assay: FLIPR Method for Rat P2X4 1321N1 Astrocytoma Cells; format: cell-based; settings: 1321N1 stably expressing rat P2X4; agonist MgATP 5 μM (EC80)
T2 construct: expressed in transfected cells
T2 sequence (P51577 1-388): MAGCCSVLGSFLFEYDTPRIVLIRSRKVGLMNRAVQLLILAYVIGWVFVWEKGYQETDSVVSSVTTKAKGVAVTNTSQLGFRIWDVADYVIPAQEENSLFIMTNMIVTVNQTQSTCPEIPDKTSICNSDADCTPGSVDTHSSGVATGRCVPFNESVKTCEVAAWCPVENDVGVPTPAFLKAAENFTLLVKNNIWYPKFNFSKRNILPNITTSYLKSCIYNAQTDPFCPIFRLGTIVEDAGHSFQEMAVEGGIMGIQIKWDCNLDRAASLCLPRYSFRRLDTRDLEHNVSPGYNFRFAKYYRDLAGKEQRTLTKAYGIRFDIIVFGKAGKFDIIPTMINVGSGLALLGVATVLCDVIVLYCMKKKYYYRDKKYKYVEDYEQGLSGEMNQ
Description: Compounds were tested on a 1321N1 cell line stably expressing rat P2X4. Cells were cultured on collagen-I-coated 384-well plates at a density of 10,000 cells/well and incubated overnight at 37° C., 5% CO2. P2X4 function was assessed by measuring intracellular calcium fluxes caused by Magnesium-ATP (MgATP) using the calcium-chelating dye Fluo8-AM (Molecular Devices) with the Fluorescent Imaging Plate Reader Tetra (FLIPR^Tetra; Molecular Devices CA). On the day of the assay, the medium was removed and the cells were incubated for 30 minutes at 37° C. and 5% CO2 in 30 μl of dye buffer (Hank's balanced salt solution, 10 mM HEPES, 1.8 mM CaCl2, 1 mM MgCl2, 2 mM probenecid, 5 mM D-glucose monohydrate, 5 μM Fluo8-AM, pH=7.4).
Compounds diluted in probenecid buffer (Hank's balanced salt solution, 10 mM HEPES, 1.8 mM CaCl2, 1 mM MgCl2, 2 mM probenecid, 5 mM D-glucose monohydrate, pH=7.4) at ten concentrations ranging from 25 μM to 1 nM (final concentration) were dispensed and incubated for 30 minutes at room temperature. The agonist, MgATP (Sigma-Aldrich Chemie GmbH, DE), was added at a final concentration of 5 μM, representing the EC80 routinely determined. The final assay volume was 50 μl and final DMSO concentration was 0.5%.
The fluorescence intensity reflecting intracellular calcium changes was recorded before and after MgATP addition, at an excitation and emission wavelengths of 470-495 nm and 515-575 nm respectively.
The compounds were tested in triplicates and fluorescence intensity raw data normalized to the agonist control and fitted to the four-parameter logistic equation:
Y=Bottom+(Top−Bottom)/(1+10^((Log IC50−X)*HillSlope))
Assay plate acceptance was based on the signal window (S/B)[…] and the reference compound pIC50 within ±[…] the mean of historic pIC50 of the compound. Failure to meet two of the three criteria determined exclusion of the plate's results. In Table 10 below the results for the assays are reported

Row | SMILES | Human P2X4 HEK Cells (FLIPR Assay) avg Efficacy [1] | IC50 [1] | IC50 [2] | Rat P2X4 1321N1 Astrocytoma Cells (FLIPR Assay) avg Efficacy [2]
1 | CC(=O)N(c1ccc(F)cc1)c1cc(NC(=O)Cc2c(F)cc(F)cc2Cl)ccn1 [Example 41, N-{4-[2-(2-chloro-4,6-difluorophenyl)acetamido]pyridin-2-yl}-N-(4-fluorophenyl)acetamide] | 94% | 589 nM | 115 nM | 91%
2 | CC(=O)N(c1ccc(C)cc1)c1cc(NC(=O)Cc2cccc(F)c2Cl)ccn1 [Example 45, N-{4-[2-(2-chloro-3-fluorophenyl)acetamido]pyridin-2-yl}-N-(4-methylphenyl)acetamide] | 102% | 485 nM | 1180 nM | 100%
3 | CC(=O)N(c1ccc(F)c(Cl)c1)c1cc(NC(=O)Cc2ccc(F)cc2Cl)ccn1 [Example 51, N-(3-chloro-4-fluorophenyl)-N-{4-[2-(2-chloro-4-fluorophenyl)acetamido]pyridin-2-yl}acetamide] | 98% | 493 nM | 177 nM | 96%
4 | CC(=O)N(c1ccc(F)c(Cl)c1)c1cc(NC(=O)Cc2c(Cl)cccc2Cl)ccn1 [Example 53, N-(3-chloro-4-fluorophenyl)-N-{4-[2-(2,6-dichlorophenyl)acetamido]pyridin-2-yl}acetamide] | 100% | 455 nM | 143 nM | 100%
5 | CC(=O)N(c1cccc(F)c1)c1cc(NC(=O)Cc2ccc(F)cc2Cl)ccn1 [Example 55, N-{4-[2-(2-chloro-4-fluorophenyl)acetamido]pyridin-2-yl}-N-(3-fluorophenyl)acetamide] | 102% | 611 nM | 289 nM | 99%
6 | CC(=O)N(c1cccc(F)c1)c1cc(NC(=O)Cc2c(Cl)cc(F)cc2Cl)ccn1 [Example 57, N-{4-[2-(2,6-dichloro-4-fluorophenyl)acetamido]pyridin-2-yl}-N-(3-fluorophenyl)acetamide] | 99% | 377 nM | 122 nM | 97%
7 | CC(=O)N(c1ccc(Cl)c(F)c1)c1cc(NC(=O)Cc2ccc(F)cc2Cl)ccn1 [Example 59, N-(4-chloro-3-fluorophenyl)-N-{4-[2-(2-chloro-4-fluorophenyl)acetamido]pyridin-2-yl}acetamide] | 97% | 532 nM | 240 nM | 81%
8 | CC(=O)N(c1ccc(Cl)c(F)c1)c1cc(NC(=O)Cc2cccc(F)c2Cl)ccn1 [Example 60, N-(4-chloro-3-fluorophenyl)-N-{4-[2-(2-chloro-3-fluorophenyl)acetamido]pyridin-2-yl}acetamide] | 96% | 454 nM | 434 nM | 94%
9 | CC(=O)N(c1ccc(F)c(F)c1)c1cc(NC(=O)Cc2ccccc2C(F)(F)F)ccn1 [Example 63, N-(3,4-difluorophenyl)-N-(4-{2-[2-(trifluoromethyl)phenyl]acetamido}pyridin-2-yl)acetamide] | 97% | 424 nM | 372 nM | 97%
10 | CC(=O)N(c1ccc(F)c(F)c1)c1cc(NC(=O)Cc2c(C)cc(Cl)cc2Cl)ccn1 [Example 64, N-{4-[2-(2,4-dichloro-6-methylphenyl)acetamido]pyridin-2-yl}-N-(3,4-difluorophenyl)acetamide] | 96% | 829 nM | 497 nM | 100%
11 | CC(=O)N(c1ccc(F)c(F)c1)c1cc(NC(=O)Cc2c(C)cc(C)cc2Cl)ccn1 [Example 65, N-{4-[2-(2-chloro-4,6-dimethylphenyl)acetamido]pyridin-2-yl}-N-(3,4-difluorophenyl)acetamide] | 94% | 505 nM | 122 nM | 93%

The next compounds have a lower IC50 [1] than those just listed; values first:

Row | Human P2X4 HEK Cells (FLIPR Assay) avg Efficacy [1] | IC50 [1] | IC50 [2] | Rat P2X4 1321N1 Astrocytoma Cells (FLIPR Assay) avg Efficacy [2] | SMILES
12 | 98% | 355 nM | 358 nM | 99% | CC(=O)N(c1ccc(F)c(Cl)c1)c1cc(NC(=O)Cc2cccc(F)c2Cl)ccn1 [Example 52, N-(3-chloro-4-fluorophenyl)-N-{4-[2-(2-chloro-3-fluorophenyl)acetamido]pyridin-2-yl}acetamide]
13 | 95% | 351 nM | 213 nM | 96% | CC(=O)N(c1ccc(F)c(Cl)c1)c1cc(NC(=O)Cc2ccccc2Cl)ccn1 [Example 50, N-(3-chloro-4-fluorophenyl)-N-{4-[2-(2-chlorophenyl)acetamido]pyridin-2-yl}acetamide]
14 | 95% | 351 nM | 350 nM | 86% | CC(=O)N(c1ccc(Cl)c(F)c1)c1cc(NC(=O)Cc2ccccc2Cl)ccn1 [Example 58, N-(4-chloro-3-fluorophenyl)-N-{4-[2-(2-chlorophenyl)acetamido]pyridin-2-yl}acetamide]
15 | 98% | 350 nM | 1360 nM | 96% | CC(=O)N(c1ccc(F)cc1)c1cc(NC(=O)Cc2ccccc2OC(F)(F)F)ccn1 [Example 42, N-(4-fluorophenyl)-N-(4-{2-[2-(trifluoromethoxy)phenyl]acetamido}pyridin-2-yl)acetamide]
16 | 90% | 303 nM | 64.2 nM | 73% | CC(=O)N(c1ccc(F)c(F)c1)c1cc(NC(=O)Cc2c(C)cccc2C)ccn1 [Example 66, N-(3,4-difluorophenyl)-N-{4-[2-(2,6-dimethylphenyl)acetamido]pyridin-2-yl}acetamide]
17 | 97% | 269 nM | 447 nM | 97% | CC(=O)N(c1cccc(F)c1)c1cc(NC(=O)Cc2ccccc2Cl)ccn1 [Example 54, N-{4-[2-(2-chlorophenyl)acetamido]pyridin-2-yl}-N-(3-fluorophenyl)acetamide]
18 | 97% | 260 nM | 190 nM | 98% | CC(=O)N(c1cccc(F)c1)c1cc(NC(=O)Cc2c(Cl)cccc2Cl)ccn1 [Example 56, N-{4-[2-(2,6-dichlorophenyl)acetamido]pyridin-2-yl}-N-(3-fluorophenyl)acetamide]
19 | 91% | 251 nM | 368 nM | 91% | CC(=O)N(c1ccc(F)c(F)c1)c1cc(NC(=O)Cc2cccc(C)c2C)ccn1 [Example 62, N-(3,4-difluorophenyl)-N-{4-[2-(2,3-dimethylphenyl)acetamido]pyridin-2-yl}acetamide]

From patent publication US20230257351A1, “SUBSTITUTED N-[…] HAVING P2X4 RECEPTOR ANTAGONISTIC ACTIVITY” (Bayer Aktiengesellschaft, priority 2020, published 2023)
